Test results as given in article PMC11360180, “Enhancement of Antimicrobial Function by L/D-Lysine Substitution on a Novel Broad-Spectrum Antimicrobial Peptide, Phylloseptin-TO2: A Structure-Related Activity Research Study” (Pharmaceutics, 2024).
Where no end group is shown, it is not given here.

Columns and labels:
S. aureus (ATCC 6538) = type: cell-based, Staphylococcus aureus; details: ATCC 6538, 24 h
Source text: (§1) Seven microorganism strains were used to preliminarily evaluate the antimicrobial activity of PSTO2 and its analogues, including Staphylococcus aureus (S. aureus) (ATCC® 6538), methicillin-resistant Staphylococcus aureus (MRSA) (NCTC® 12493), Enterococcus faecalis (E. faecalis) (NCTC® 12697), E. coli (ATCC® 8739), Klebsiella pneumonia (K. pneumonia) (ATCC® 43816), Pseudomonas aeruginosa (P. aeruginosa) (ATCC® CRM 9027), Acinetobacter baumanni (A. baumanni) (BAA® 747), and Candida albicans (C. albicans) (ATCC® 10231). In this study, the strains were cultured in Mueller–Hinton broth (MHB), nutrient broth (NB), and yeast–peptone–dextrose broth (YPD-B) correspondingly at 37 °C, with shaking at 120 rpm. Each peptide was dissolved from 128 μM to 1 μM and mixed with the bacterium at 5 × 10^5 CFU/mL. In this process, bacteria with culture medium were used as the growth control group; PBS was set up as the vehicle control group; sterile culture medium was used as the blank control group; and Norfloxacin at a concentration of 2 mg/mL and amphotericin B at a concentration of 1 mg/mL were set up as the positive control group for bacteria and fungi, respectively.
(§2) After being incubated for 24 h, a Synergy HT plate reader (Bio-Tek, Shoreline, WA, USA) was used to detect the absorbance of each well in the 96-well plate at λ = 550 nm. The concentration at which no visible turbidity could be recorded was the MIC value. Beginning from the MIC value, 10 µL of solution in each clear well was dropped on the sterile agar plates. The plate was checked the next day for colony formation, and the lowest concentration at which no colony growing was recorded as an MBC value.

A. baumannii (BAA 747) = type: cell-based, Acinetobacter baumanni; details: BAA 747, 24 h
Source text: as §1, §2

[1] = tested on: K. pneumonia (ATCC 43816); type: cell-based, Klebsiella pneumonia; details: ATCC 43816, 24 h
Source text: as §1, §2

[2] = tested on: P. aeruginosa (ATCC 9027); type: cell-based, Pseudomonas aeruginosa; details: ATCC 9027, 24 h
Source text: as §1, §2

C. albicans = type: cell-based, Candida albicans; details: 24 h
Source text: as §1, §2

[3] = tested on: MRSA (ATCC 12493) biofilm; type: cell-based, methicillin-resistant Staphylococcus aureus; details: ATCC 12493, 24 h
Procedure: (§3) To test the anti-biofilm ability of PSTO2 and its analogues, three types of microorganisms (S. aureus ATCC® 6538, E. coli ATCC® 8739, and MRSA NCTC® 12493) were chosen. Tryptic soy broth (TSB) and Lysogeny broth (LB) were used to culture microorganisms. The peptide was dissolved in an autoclaved PBS solution and diluted into concentrations ranging from 51,200 µM to 100 µM. One µL of peptide solution of each concentration was added into a 96-well plate with 100 µL bacterium at 5 × 10^5 CFU/mL. The plate was incubated at 37 °C for 24 h, with shaking at 200 rpm. After overnight incubation, the planktonic bacteria were washed up. Then, 100 µL of methanol was used to fix the biofilms onto the bottom, and 100 µL of 0.1% crystal violet solution (Sigma-Aldrich, Gillingham, UK) was added to each well to stain the biofilms. After drying, 160 µL of acetic acid (30% in deionised water, Sigma-Aldrich, UK) was added to each well to dissolve the shaded parts. The absorbance was detected with the Synergy HT plate reader at λ = 595 nm.
(§4) For the MBEC assay, 100 µL of the bacterium of 5 × 10^5 CFU/mL was transferred into an empty 96-well plate, and the plate was incubated at 37 °C for 24 h to obtain the biofilms primarily. Then, the peptide solution from 512 µM to 1 µM was transferred into a corresponding well, followed by 24 h incubation at 37 °C, with shaking at 200 rpm. After this, the plate was handled using the identical method to the plate in the MBIC assay, and the absorbance of each well was detected with the Synergy HT plate reader at λ = 595 nm. The minimum concentration at which the peptide can eradicate the existing biofilm was recorded as the MBEC value.

MCF-7 = type: cell-based, human; details: 24 h
Procedure: (§5) The percentage of cancer cell survival after being treated with peptides was assessed with 3-(4,5-dimethylthiazol-2-yl-)-2,5-diphenyltetrazolium bromide (MTT). The principle is the reduction process of the yellow tetrazolium to DMSO-soluble formazan crystals caused by the metabolic capability of living cells. All the cancerous and normal cells were obtained from the American Type Culture Collection (Rockville, VA, USA). Human lung cancer NCI-H838 and NCI-H460 were cultured in Roswell Park Memorial Institute (RPMI)-1640 medium (Gibco, Paisley, UK) and mixed with 10% (v/v) fetal bovine serum (FBS) (Gibco, Campinas, Brazil) and 1% penicillin–streptomycin (Gibco, Grand Island, NY, USA) 89/10/1 v/v/v). U251MG and MCF-7 were cultured in Dulbecco’s Modified Eagle medium (DMEM) (Gibco, Paisley, UK) and mixed with 10% FBS and 1% penicillin–streptomycin. HCT 116 was cultured in McCoy’s 5A (modified) medium (Gibco, Paisley, UK) and mixed with 10% FBS and 1% penicillin–streptomycin. MRC-5 and HaCat were cultured in Minimum Essential Medium (MEM) (Gibco, Paisley, UK) and mixed with 10% FBS and 1% penicillin–streptomycin. Cells were cultured and seeded in a 96-well plate at a density of 8000 cells/well with the corresponding medium and incubated for 24 h at 37 °C with 5% CO2. After 24 h of incubation, the cells were starved with a serum-free medium for 4 h at 37 °C. Then, the cells were incubated with different concentrations of peptide solution in a serum-free medium from 1 nM to 100 µM at 37 °C for 24 h. Meanwhile, triton X-100 (0.1%) (Sigma-Aldrich, St. Louis, MO, USA) and PBS were chosen as positive and negative controls. After 10 µL of MTT (5 mg/mL) was added to each well away from light and incubated at 37 °C for 2 h, the formazan generated by mitochondria was dissolved with DMSO. The absorbance was detected at a wavelength of 570 nm by a Synergy HT plate reader (Bio-Tek, Shoreline, WA, USA).

NCI-H460 = type: cell-based, human; details: 24 h
Procedure: as §5

NCI-H838 = type: cell-based, human; details: 24 h
Procedure: as §5

U251MG = type: cell-based, human; details: 24 h
Procedure: as §5

HaCat = type: cell-based; details: 24 h
Procedure: as §5

MRC-5 = type: cell-based; details: 24 h
Procedure: as §5

horse red blood cells = type: cell-based
Procedure: To assess the haemolytic activity of PSTO2 and its analogues, 2% fresh defibrinated horse red blood cells (TCS Biosciences Ltd., Buckingham, UK) were acquired after being washed and resuspended in sterile PBS. Each peptide was dissolved in PBS to prepare solutions with concentrations ranging from 2 µM to 1024 µM. Subsequently, 100 µL of each peptide solution was mixed with 100 µL of the red blood cell suspension. The red blood cells treated with 1% triton X-100 and sterile PBS in equivalent volumes were set up as the positive and negative control groups, respectively. Then, all the samples were incubated at 37 °C for 2 h. Thereafter, the samples were centrifuged at 900× g for 10 min. Finally, 100 µL of supernatant of each sample was transferred into a 96-well plate, and the absorbance was recorded by a Synergy HT plate reader (Bio-Tek, Shoreline, WA, USA) at a wavelength of 570. The following equation was used to calculate haemolysis activity:Haemolysis activity = (Sample absorbance − Ab)/(Ap − Ab) × 100% where Ab refers to the mean value of absorbance of the negative control (incubated with PBS only), and Ap refers to the mean absorbance value of the positive control (incubated with triton X-100).

MRSA (NCTC 12493) = type: cell-based, methicillin-resistant Staphylococcus aureus; details: NCTC 12493, 24 h
Source text: as §1, §2

E. coli (ATCC 8739) = type: cell-based, Escherichia coli; details: ATCC 8739, 24 h
Source text: as §1, §2

[4] = tested on: S. aureus (ATCC 6538) biofilm; type: cell-based, Staphylococcus aureus; details: ATCC 6538, 24 h
Procedure: as §3, §4

[5] = tested on: E. coli (ATCC 8739) biofilm; type: cell-based, Escherichia coli; details: ATCC 8739, 24 h
Procedure: as §3, §4

Substance	MBC (S. aureus (ATCC 6538)) [µM]	MBC (A. baumannii (BAA 747))	MIC (A. baumannii (BAA 747)) [µM]	MBC [1]	MBC [2] [µM]	MIC [2] [µM]	MBC (C. albicans) [µM]	MIC (C. albicans) [µM]	MBIC [3] [µM]	HC10 (horse red blood cells)	MIC (S. aureus (ATCC 6538)) [µM]	MBC (MRSA (NCTC 12493)) [µM]	MIC (MRSA (NCTC 12493)) [µM]	MBC (E. coli (ATCC 8739))	MBEC [4] [µM]	MBIC [4] [µM]	MBEC [3] [µM]	MBEC [5] [µM]	MBIC [5] [µM]	also measured
FLSLIPHAISAVSALAKHL-NH2 [PSTO2, phylloseptin-TO2]	4	>128 µM	>128	128 µM	>128	>128	128	32	4	21.78	–	–	–	–	–	–	–	–	–	MIC [1]: 64 µM; IC50 (MCF-7): 23.1 µM; IC50 (NCI-H460): 78.3 µM; IC50 (NCI-H838): 85.8 µM; IC50 (U251MG): 84 µM; IC50 (HaCat): 70.58 µM; IC50 (MRC-5): 73.22 µM
FLSLIPKAISAVSALAKHL-NH2 [Peptide 7K]	4	>128 µM	>128	8/8 μM	32	32	64	32	4	21.97	4	8	4	8 µM	32	16	32	64	16	MIC (E. coli (ATCC 8739)): 8 µM
FLSLIPKAISAVSALAKKL-NH2 [Peptide 18K]	4	32/32 μM	–	16/16 μM	64	32	128	32	4	20.59	2	4	4	4/4 μM	32	8	32	64	32	–
